Patent US6737383B1, “Herbicidal oxadiazolidines” (priority 1999, dated 2004)

Experiments:
[1] = test system: rape; assay: Test B pre/postemergence rape; type: in vivo, Brassica napus; details: for Plant response rating, Rape: scale of 0 to 10 where 0 is no effect and 10 is complete control
How it was run: (§1)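 Herbicidal effect was estimated by eye on a ten-point control scale after plants spent twelve to sixteen days in a greenhouse following soil or foliar treatment. Foliar sprays targeted plants at one to four leaves; all doses were formulated in a non-phytotoxic solvent with surfactant.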

[2] = test system: velvetleaf; assay: Test B pre/postemergence velvetleaf; type: in vivo, Abutilon theophrasti; details: for Plant response rating, Velvetleaf: scale of 0 to 10 where 0 is no effect and 10 is complete control
How it was run: as §1

[3] = test system: surinam grass; assay: Test B pre/postemergence surinam grass; type: in vivo, Brachiaria decumbens
How it was run: as §1

[4] = test system: morningglory; assay: Test B pre/postemergence morningglory; type: in vivo, Ipomoea hederacea; details: for Plant response rating, Morningglory: scale of 0 to 10 where 0 is no effect and 10 is complete control
How it was run: as §1

[5] = test system: smallflower flatsedge; assay: Test B flood test smallflower flatsedge; type: in vivo, Cyperus difformis
How it was run: (§2)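 Plants were grown to the 2-leaf stage before treatment with test chemical, then held in a greenhouse for twelve to sixteen days. Injury was visually rated against untreated controls on a 0–10 scale, where 0 is no effect and 10 is complete control.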

[6] = test system: corn; assay: Test B pre/postemergence corn; type: in vivo, Zea mays
How it was run: as §1

[7] = test system: wheat; assay: Test B pre/postemergence wheat; type: in vivo, Triticum aestivum; details: for Plant response rating, Wheat: scale of 0 to 10 where 0 is no effect and 10 is complete control
How it was run: as §1

[8] = test system: cocklebur; assay: Test B pre/postemergence cocklebur; type: in vivo, Xanthium strumarium
How it was run: as §1

[9] = test system: giant foxtail; assay: Test B pre/postemergence giant foxtail; type: in vivo, Setaria faberii
How it was run: as §1

[10] = test system: blackgrass; assay: Test B pre/postemergence blackgrass; type: in vivo, Alopecurus myosuroides
How it was run: as §1

[11] = test system: wild oat; assay: Test B pre/postemergence wild oat; type: in vivo, Avena fatua; details: for Plant response rating, Wild oats: scale of 0 to 10 where 0 is no effect and 10 is complete control
How it was run: as §1

[12] = test system: soybean; assay: Test B pre/postemergence soybean; type: in vivo, Glycine max; details: for Plant response rating, Soybean: scale of 0 to 10 where 0 is no effect and 10 is complete control
How it was run: as §1

[13] = test system: crabgrass; assay: Test B pre/postemergence crabgrass; type: in vivo, Digitaria sanguinalis
How it was run: as §1

[14] = test system: bamyardgrass; assay: Test B flood test barnyardgrass; type: in vivo, Echinochloa crus-galli
How it was run: as §2

[15] = test system: duck salad; assay: Test B flood test duck salad; type: in vivo, Heteranthera limosa
How it was run: as §2

[16] = Postemergence, Rate 250 g/ha, scale 0 to 10
[17] = Preemergence, Rate 250 g/ha, scale 0 to 10, 0 is no effect, 10 is complete control
[18] = Preemergence, Rate 500 g/ha, scale 0 to 10, 0 is no effect, 10 is complete control
[19] = Rate 62 g/ha, Postemergence, scale 0 to 10, 0 no effect, 10 complete control
[20] = Rate 125 g/ha, Postemergence, scale 0 to 10, 0 is no effect, 10 is complete control
[21] = Postemergence, Rate 500 g/ha, scale of 0 to 10 where 0 is no effect and 10 is complete control
[22] = Preemergence, Rate 62 g/ha, scale of 0 to 10 where 0 is no effect and 10 is complete control
[23] = Preemergence, Rate 125 g/ha, scale of 0 to 10 where 0 is no effect and 10 is complete control
[24] = Rate 62 g/ha, flood test species, Pre-emergence, visual evaluation after twelve to sixteen days
[25] = Rate 125 g/ha, under heading Pre-emergence, flood test species, visual evaluation after twelve to sixteen days
[26] = Rate 250 g/ha, Pre-emergence (flood test species), scale 0 to 10, 0 is no effect, 10 is complete control
[27] = Rate 500 g/ha, Pre-emergence, flood test species, scale 0 to 10 (0 no effect, 10 complete control)

`CCC=CCn1c(=O)on(C(=O)N(c2ccccc2)C(C)C)c1=O` [Compound 454] was tested, and the “Rape plant response rating” value [1, 16] was 0, the “Plant response rating, Rape” value ([1]; Preemergence, Rate 62 g/ha) was 0 and the “Plant response rating, Rape” value ([1]; Preemergence, Rate 125 g/ha) was 0. For the same compound, the “Rape plant response rating” value [1, 17] was 0, the “Rape plant response rating” value [1, 18] was 0 and the “Rape plant response rating” value [1, 19] was 0. The “Rape plant response rating” value [1, 20] was 0, the “Velvetleaf plant response rating” value [2, 16] was 0 and the “Plant response rating, Velvetleaf” value ([2]; Preemergence, Rate 62 g/ha) was 0. The “Plant response rating, Velvetleaf” value ([2]; Preemergence, Rate 125 g/ha) was 0, the “Velvetleaf plant response rating” value [2, 17] was 5 and the “Velvetleaf plant response rating” value [2, 18] was 6. For the same compound, the “Velvetleaf plant response rating” value [2, 19] was 0, the “Velvetleaf plant response rating” value [2, 20] was 0 and the “B. signalgrass plant response rating” value ([3]; Postemergence, Rate 250 g/ha, scale 0 to 10, 0 no effect, 10 complete control) was 0. The “B. signalgrass plant response rating” value [3, 21] was 2, the “Plant response rating, B. signalgrass” value [3, 22] was 0 and the “Plant response rating, B. signalgrass” value [3, 23] was 0. For the same compound, the “B. signalgrass plant response rating” value [3, 17] was 4, the “B. signalgrass plant response rating” value [3, 18] was 4 and the “B. signalgrass plant response rating” value [3, 19] was 0. The “B. signalgrass plant response rating” value [3, 20] was 0, the “Morningglory plant response rating” value [4, 16] was 10 and the “Plant response rating, Morningglory” value ([4]; Preemergence, Rate 62 g/ha) was 0. The “Plant response rating, Morningglory” value ([4]; Preemergence, Rate 125 g/ha) was 0, the “Morningglory plant response rating” value [4, 17] was 0 and the “Morningglory plant response rating” value [4, 18] was 0. For the same compound, the “Morningglory plant response rating” value [4, 19] was 7, the “Morningglory plant response rating” value [4, 20] was 9 and the “Plant response rating, S. Flatsedge (0 to 10 scale, 0 is no effect, 10 is complete control)” value [5, 24] was 0. For the same compound, the “S. Flatsedge plant response rating (0 to 10 scale, 0 is no effect, 10 is complete control)” value [5, 25] was 0, the “S. Flatsedge plant response rating” value [5, 26] was 0 and the “S. Flatsedge plant response rating” value [5, 27] was 0. For the same compound, the “Corn plant response rating” value [6, 16] was 0, the “Corn plant response rating” value [6, 21] was 0 and the “Plant response rating, Corn” value [6, 22] was 0. For the same compound, the “Plant response rating, Corn” value [6, 23] was 0, the “Corn plant response rating” value [6, 17] was 0 and the “Corn plant response rating” value [6, 18] was 3. For the same compound, the “Corn plant response rating” value [6, 19] was 0, the “Corn plant response rating” value [6, 20] was 0 and the “Wheat plant response rating” value [7, 16] was 0. For the same compound, the “Plant response rating, Wheat” value ([7]; Preemergence, Rate 62 g/ha) was 0, the “Plant response rating, Wheat” value ([7]; Preemergence, Rate 125 g/ha) was 0 and the “Wheat plant response rating” value [7, 17] was 0. For the same compound, the “Wheat plant response rating” value [7, 18] was 0, the “Wheat plant response rating” value [7, 19] was 0 and the “Wheat plant response rating” value [7, 20] was 0. For the same compound, the “Cocklebur plant response rating” value [8, 16] was 0, the “Cocklebur plant response rating” value [8, 21] was 0 and the “Plant response rating, Cocklebur” value [8, 22] was 0. For the same compound, the “Plant response rating, Cocklebur” value [8, 23] was 0, the “Cocklebur plant response rating” value [8, 17] was 0 and the “Cocklebur plant response rating” value [8, 18] was 0. For the same compound, the “Cocklebur plant response rating” value [8, 19] was 0, the “Cocklebur plant response rating” value [8, 20] was 0 and the “Giant foxtail plant response rating” value [9, 16] was 8. The “Giant foxtail plant response rating” value [9, 21] was 9, the “Plant response rating, Giant foxtail” value [9, 22] was 6 and the “Plant response rating, Giant foxtail” value [9, 23] was 9. For the same compound, the “Giant foxtail plant response rating” value [9, 17] was 10, the “Giant foxtail plant response rating” value [9, 18] was 10 and the “Giant foxtail plant response rating” value [9, 19] was 2. The “Giant foxtail plant response rating” value [9, 20] was 2, the “Blackgrass plant response rating” value [10, 16] was 2 and the “Blackgrass plant response rating” value [10, 21] was 2. For the same compound, the “Plant response rating, Blackgrass” value [10, 22] was 0, the “Plant response rating, Blackgrass” value [10, 23] was 0 and the “Blackgrass plant response rating” value [10, 17] was 2. The “Blackgrass plant response rating” value [10, 18] was 6, the “Blackgrass plant response rating” value [10, 19] was 0 and the “Blackgrass plant response rating” value [10, 20] was 0. For the same compound, the “Wild oats plant response rating” value [11, 16] was 0, the “Plant response rating, Wild oats” value ([11]; Preemergence, Rate 62 g/ha) was 0 and the “Plant response rating, Wild oats” value ([11]; Preemergence, Rate 125 g/ha) was 0. For the same compound, the “Wild oats plant response rating” value [11, 17] was 0, the “Wild oats plant response rating” value [11, 18] was 2 and the “Wild oats plant response rating” value [11, 19] was 0. For the same compound, the “Wild oats plant response rating” value [11, 20] was 0, the “Soybean plant response rating” value [12, 16] was 2 and the “Plant response rating, Soybean” value ([12]; Preemergence, Rate 62 g/ha) was 0. For the same compound, the “Plant response rating, Soybean” value ([12]; Preemergence, Rate 125 g/ha) was 0, the “Soybean plant response rating” value [12, 17] was 0 and the “Soybean plant response rating” value [12, 18] was 0. For the same compound, the “Soybean plant response rating” value [12, 19] was 1, the “Soybean plant response rating” value [12, 20] was 2 and the “Crabgrass plant response rating” value [13, 16] was 3. For the same compound, the “Crabgrass plant response rating” value [13, 21] was 9, the “Plant response rating, Crabgrass” value [13, 22] was 2 and the “Plant response rating, Crabgrass” value [13, 23] was 3. For the same compound, the “Crabgrass plant response rating” value [13, 17] was 8, the “Crabgrass plant response rating” value [13, 18] was 9 and the “Crabgrass plant response rating” value [13, 19] was 2. For the same compound, the “Plant response rating, Barnyardgrass (0 to 10 scale, 0 is no effect, 10 is complete control)” value [14, 24] was 0, the “Barnyardgrass plant response rating (0 to 10 scale, 0 is no effect, 10 is complete control)” value [14, 25] was 0 and the “Barnyardgrass plant response rating” value [14, 26] was 0. For the same compound, the “Barnyardgrass plant response rating” value [14, 27] was 0, the “Plant response rating, Ducksalad (0 to 10 scale, 0 is no effect, 10 is complete control)” value [15, 24] was 0 and the “Ducksalad plant response rating (0 to 10 scale, 0 is no effect, 10 is complete control)” value [15, 25] was 0. The “Ducksalad plant response rating” value [15, 26] was 0 and the “Ducksalad plant response rating” value [15, 27] was 0.
